These results are taken from ChEMBL document CHEMBL4825728, “Development of succinimide-based inhibitors for the mitochondrial rhomboid protease PARL” (Bioorg Med Chem Lett, 2021).

SMILES strings stand for the structures. Activity calls are given as the source filed them. No cut-off for these calls is given here.

Data set [1] can be described thus: Solubility of the compound in HEK-293T cell membrane transfected with FLAG-tagged human PARL. Type of data set: ADME, cell membranes.
Data set [2] addresses T1, Presenilin-associated rhomboid-like protein, mitochondrial (Homo sapiens) (UniProt Q9H300).
T1 sequence (whole entry): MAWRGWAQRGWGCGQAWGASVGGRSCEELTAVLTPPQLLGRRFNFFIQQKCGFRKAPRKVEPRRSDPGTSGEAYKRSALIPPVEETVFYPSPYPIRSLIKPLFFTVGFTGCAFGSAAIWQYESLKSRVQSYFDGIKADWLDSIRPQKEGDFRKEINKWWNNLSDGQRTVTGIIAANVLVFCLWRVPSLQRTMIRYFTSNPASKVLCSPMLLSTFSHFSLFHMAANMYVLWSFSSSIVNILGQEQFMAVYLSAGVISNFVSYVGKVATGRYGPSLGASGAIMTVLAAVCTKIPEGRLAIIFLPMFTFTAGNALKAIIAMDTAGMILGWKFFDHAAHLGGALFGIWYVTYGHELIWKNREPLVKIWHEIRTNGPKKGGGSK
Kind of data set: Inhibition of FLAG-tagged human PARL transfected in HEK293T cell membrane assessed as inhibition of FP-Rh labeling at 200 uM treated with compound prior to FP-Rh addition by competitive ABPP based analysis. The format is cell membranes.

Data set [3] has as its target T2, Rhomboid protease GlpG (Escherichia coli (strain K12)) (UniProt P09391).
T2 sequence (whole entry): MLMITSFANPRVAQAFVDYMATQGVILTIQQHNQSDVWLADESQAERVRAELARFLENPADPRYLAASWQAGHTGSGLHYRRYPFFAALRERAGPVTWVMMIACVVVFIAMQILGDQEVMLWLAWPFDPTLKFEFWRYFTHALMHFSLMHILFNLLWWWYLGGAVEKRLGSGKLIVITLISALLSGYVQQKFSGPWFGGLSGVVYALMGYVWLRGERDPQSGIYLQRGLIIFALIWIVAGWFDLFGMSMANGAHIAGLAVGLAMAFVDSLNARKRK
Kind of data set: Inhibition of GlpG in Escherichia coli BL21 assessed as inhibition of FP-Rh labeling at 200 uM treated with compound prior to FP-Rh addition by competitive ABPP based analysis.

Data set [4] addresses T3, Rhomboid protease GlpG (Escherichia coli (strain K12), UniProt P09391).
T3 sequence (P09391 whole entry): T2 sequence (whole entry)
Kind of data set: Inhibition of GlpG in Escherichia coli BL21 assessed as inhibition of FP-Rh labeling treated with compound for 30 mins prior to FP-Rh addition by competitive ABPP based analysis.

For data set [5], the target named is T4, Presenilin-associated rhomboid-like protein, mitochondrial (Homo sapiens, UniProt Q9H300).
T4 sequence (Q9H300 whole entry): T1 sequence (whole entry)
Kind of data set: Inhibition of human PARL transfected in HEK293T cell membrane assessed as inhibition of FP-Rh labeling treated with compound for 30 mins prior to FP-Rh addition by competitive ABPP based analysis. Type of data set: cell membranes.

Data set [6] addresses T1, Presenilin-associated rhomboid-like protein, mitochondrial (Homo sapiens). Kind of data set: Inhibition of FLAG-tagged human PARL transfected in HEK293T cell membrane assessed as inhibition of FP-Rh labeling at 100 uM incubated for 8 hrs followed by cells washing and lysis prior to FP-Rh labeling by In situ based analysis. The format is cell membranes.
The target is the same in data set [7]. Kind of data set: Inhibition of FLAG-tagged human PARL transfected in HEK293T cell membrane assessed as inhibition of FP-Rh labeling at 100 uM incubated for 24 hrs followed by cells washing and lysis prior to FP-Rh labeling by In situ based analysis. The format is cell membranes.
Data set [8] has the same target. Kind of data set: Reversible inhibition of FLAG-tagged human PARL transfected in HEK293T cell membrane assessed as FP-Rh labeling at 200 uM treated with compound followed by gel filtration and later incubated for 4 hrs prior to FP-Rh labeling by competitive ABPP based analysis. The format is cell membranes. More on the design: Activity: scale not given: the % may be the effect or the level left. A general note: In gel filtration, larger molecules generally elute earlier.

Data set [9] has the same target. Kind of data set: Reversible inhibition of FLAG-tagged human PARL transfected in HEK293T cell membrane assessed as FP-Rh labeling at 200 uM treated with compound followed by gel filtration and later incubated for 4 hrs prior to FP-Rh labeling by western blot analysis. Type of data set: cell membranes.

As for `O=C1c2ccccc2C(=O)N1OS(=O)(=O)c1ccc2ccccc2c1`, the solubility entry in [1] is listed as “Soluble”.

`O=C1c2ccccc2C(=O)N1OS(=O)(=O)c1ccccc1`: the solubility entry in data set [1] was “Soluble”.

On to `O=S(=O)(F)Cc1ccccc1`, for which the inhibition result in data set [2] and in data set [3] was “inactive” in each case. Regarding `O=C1CCC(=O)N1S(=O)(=O)c1ccc2ccccc2c1`, the solubility result in data set [1] was “Soluble”. Same read-out and setting: with `CC(C)S(=O)(=O)N1C(=O)CCC1=O` the entry was “Soluble”. On to `CS(=O)(=O)N1C(=O)c2ccccc2C1=O`, for which, in data set [1], the solubility entry was “Soluble”.

On to `Cc1ccc(S(=O)(=O)N[C@@H](Cc2ccccc2)C(=O)CCl)cc1`, for which the inhibition result in [2] and in [3] was “inactive” in each case. Take `O=C1CCC(=O)N1OS(=O)(=O)c1ccc([N+](=O)[O-])cc1`: the solubility entry in data set [1] was “Soluble”. Consider `NCCc1ccc(S(=O)(=O)F)cc1`, for which the inhibition result in [2] and in data set [3] was “inactive” each time. For `O=C1c2ccccc2C(=O)N1S(=O)(=O)c1ccc2ccccc2c1`, in [1], the solubility result is “Soluble”. Still for that read-out and setting: with `COc1ccc(S(=O)(=O)ON2C(=O)c3ccccc3C2=O)cc1` the entry was “Soluble”; with `O=C1c2ccccc2C(=O)N1S(=O)(=O)c1ccc([N+](=O)[O-])cc1`, “Soluble”. Still for that read-out and setting: under `O=C1c2ccccc2C(=O)N1OS(=O)(=O)c1ccc(-c2ccccc2)cc1` stands “Soluble”. `O=C1CCC(=O)N1OS(=O)(=O)c1ccc(-c2ccccc2)cc1`: the solubility result in data set [1] is reported as “Soluble”. The IC50 (as a rule, the concentration that gives 50% inhibition) amounted to 26 µM in data set [4] and 1.9 µM in data set [5]. Regarding `O=C1CCC(=O)N1S(=O)(=O)c1ccc([N+](=O)[O-])cc1`, the solubility result in data set [1] is reported as “Soluble”. For the same compound, the values for the half-maximal inhibitory concentration (IC50) in [4] and in data set [5] were 310 µM and 0.9 µM, respectively. Further, the inhibition (commonly how much of the control response was suppressed) in data set [6] is “Active”. Also, the inhibition result in data set [7] was “inactive”. For the compound `O=C1CCC(=O)N1S(=O)(=O)c1ccccc1`, the solubility result in data set [1] is given as “Soluble”. Moreover, the concentration for half-maximal inhibition (IC50) in [4] was above 1000 µM; in data set [5] it was 4.3 µM. Besides, in [8], the inhibition entry is “Active”. Further, the inhibition entry in data set [7] is “inactive”.

Consider `CS(=O)(=O)N1C(=O)CCC1=O`, for which, in data set [1], the solubility entry was “Soluble”. The same measure, in the same setting: under `CS(=O)(=O)ON1C(=O)CCC1=O` stands “Soluble”; under `COc1ccc(S(=O)(=O)N2C(=O)CCC2=O)cc1`, “Soluble”. In the case of `O=C(OCN1C(=O)c2ccccc2S1(=O)=O)c1ccccc1Cl`, the IC50 in data set [4] was 2.8 µM; in data set [5], 8.8 µM. Moreover, the inhibition in data set [2] was 100%; in data set [3], 100%; in data set [6] it was above 50%. Also, the Activity in data set [8] worked out at 20%. Besides, in data set [7], the inhibition result was “inactive”.

`COc1ccc(S(=O)(=O)ON2C(=O)CCC2=O)cc1`: the solubility entry in [1] is “Soluble”.

Turning to `O=C1c2ccccc2C(=O)N1S(=O)(=O)c1ccccc1`, in [1], the solubility entry is given as “Soluble”. Same read-out and setting: with `O=C1c2ccccc2C(=O)N1S(=O)(=O)c1ccc(-c2ccccc2)cc1` the entry was “Soluble”; with `CC(C)S(=O)(=O)N1C(=O)c2ccccc2C1=O`, “Soluble”; with `CS(=O)(=O)ON1C(=O)c2ccccc2C1=O`, “Soluble”. On the same count and under the same terms, under `CC(C)S(=O)(=O)ON1C(=O)CCC1=O` stands “Soluble”. `O=C1c2ccccc2C(=O)N1OS(=O)(=O)c1ccc([N+](=O)[O-])cc1`: the solubility entry in [1] is on record as “Soluble”. Take `O=C1CCC(=O)N1OS(=O)(=O)c1ccccc1`: in [1], the solubility result was “Soluble”. The half-inhibitory concentration (IC50) in data set [4] was 120 µM; in data set [5] it was 20 µM. Besides, the inhibition entry in data set [8] and in data set [9] was “Active” each time. For the same compound, the inhibition in data set [6] was above 50%. Besides, the inhibition entry in data set [7] is “inactive”. As to `O=C1CCC(=O)N1S(=O)(=O)c1ccc(-c2ccccc2)cc1`, the solubility result in data set [1] is listed as “Soluble”. The results for the IC50 in data set [4] and in data set [5] were 68 µM and 0.7 µM, respectively. With `O=C1CCC(=O)N1OS(=O)(=O)c1ccc2ccccc2c1`, in data set [1], the solubility entry is “Soluble”.

Turning to `CC(C)S(=O)(=O)ON1C(=O)c2ccccc2C1=O`, in data set [1], the solubility entry was “Soluble”.

Take `COc1ccc(S(=O)(=O)N2C(=O)c3ccccc3C2=O)cc1`: the solubility entry in [1] is on record as “Soluble”. Regarding `O=c1oc(Cl)c(Cl)c2ccccc12`, the inhibition result in data set [2] and in data set [3] was “Active” in each case.
